Measurements reported in the NIST ThermoML archive (doi:10.1016/j.jct.2017.09.022).
± gives the expanded uncertainty stated by the source.

Conditions: 101.33 kPa, Crystal, Small (less than 1 g) adiabatic calorimetry

C[C@@H](O)[C@H](N)C(=O)O [L-threonine]
Conditions | molar entropy [J/K/mol]
5 K | 0.02162 ± 0.024
10 K | 0.1746 ± 0.033
15 K | 0.6735 ± 0.11
20 K | 1.713 ± 0.25
25 K | 3.326 ± 0.25
30 K | 5.488 ± 0.5
35 K | 8.065 ± 0.75
40 K | 10.89 ± 1
45 K | 13.89 ± 1.2
50 K | 17.13 ± 1.5
60 K | 23.7 ± 2.2
70 K | 30.6 ± 1
80 K | 37.33 ± 1.2
90 K | 43.98 ± 1.6
100 K | 50.55 ± 1.3
110 K | 57.04 ± 1.4
120 K | 63.44 ± 1.1
130 K | 69.68 ± 1.2
140 K | 75.91 ± 1.3
150 K | 82.06 ± 1.5
160 K | 88.05 ± 1.6
170 K | 93.95 ± 1.6
180 K | 99.86 ± 1.7
190 K | 105.59 ± 1.8
200 K | 111.33 ± 2
210 K | 116.9 ± 2
220 K | 122.47 ± 2.2
230 K | 128.04 ± 2.2
240 K | 133.45 ± 1.6
250 K | 138.85 ± 1.7
260 K | 144.26 ± 1.7
270 K | 149.58 ± 1.8
280 K | 154.82 ± 1.8
290 K | 160.14 ± 2
298.15 K | 164.38 ± 2
300 K | 165.29 ± 2
310 K | 170.53 ± 1.9
320 K | 175.6 ± 1.9
330 K | 180.67 ± 1.9
340 K | 185.75 ± 2
350 K | 190.73 ± 2
360 K | 195.72 ± 2
370 K | 200.71 ± 2.2
